# According to US4343805A, “Heterocyclic compounds” (John Wyeth & Brother Limited, priority 1978, dated 1982):
# Columns and labels:
# [1] = test system: Stress-induced erosion; assay: Stress-induced erosion test (Senay & Levine), anti-ulcer activity; format: in vivo
# Protocol: (§1) Anti-ulcer activity was determined by the stress-induced erosion test of Senay & Levine, Proc. Soc. Exp. Biol. Med., 124, 1221-3(1967) and anti-secretory activity by the test of H. Shay, D. Sun and H. Greenstein, Gastroentarology, 1954, 26, 903-13 as exemplified by Beattie et al J. Med. Chem., 20, 714 (1977). […] However, some compounds show activity in tests for anti-hypertensive activity.
# [2] = test system: Female rats rendered hypertensive (unilateral nephrectomy, deoxycorticosterone acetate); assay: Anti-hypertensive activity, Procedure B (deoxycorticosterone acetate hypertensive rats, systolic pressure); format: in vivo, rat; conditions: 50 mg/kg orally, DOCA hypertensive female rats
# Protocol: (§2) Some compounds of the invention were tested for anti-hypertensive activity by the following procedures.
# Female rats are rendered hypertensive by unilateral nephrectomy and the s.c. implantation of a pellet containing 30 mg of deoxycorticosterone acetate. The drinking water is replaced by normal saline ad lib for the first four weeks following preparation. Blood pressures stabilise at a hypertensive level after 6 weeks. Systolic pressure is measured indirectly before dosing with a test compound using an E and M pneumatic pulse transducer and a Devices MX2 recorder. Groups of 4 rats are dosed orally with suspensions or solutions of the test compound in 0.5% hydroxypropyl-methyl-cellulose 0.9% saline vehicle. Blood pressures are recorded again at 2, 6 and 24 hours and the results, expressed as a percentage of the pre-dose values compared with those of a similar group of rats receiving vehicle alone.
# [3] = test system: Anti-secretory (gastric secretion volume); assay: Anti-secretory test (Shay et al); format: in vivo
# Protocol: as §1
# [4] = test system: male spontaneously hypertensive rats; assay: Anti-hypertensive activity, Procedure A (spontaneously hypertensive rats, systolic pressure); format: in vivo, rat
# Protocol: as §2
# Systolic pressure of male spontaneously hypertensive rats is measured by an indirect technique using the Decker Caudal Plethylsmograph or other appropriate sensor. Groups usually consist of 4 rats. Drugs are usually administered orally. Pressures are usually read prior to drug administration and at 1.5, 4 and 24 hours thereafter. The schedule may be altered depending upon the behaviour of the drug.
Structure (SMILES),inhibition in vivo at 100 mg/kg [1] [%],"Anti-secretory (Shay et al), % change in volume ([3]; Dose 30 mg/kg) [%]",further results
"c1ccc(SCc2c[nH]cn2)nc1 [Example 8, 2-(4-Imidazolylmethylthio)pyridine]",79,,inhibition in vivo at 30 mg/kg [1]: 70%
"Cc1[nH]cnc1CSc1ccncc1 [Example 7, 4-(4-[5-Methylimidazolyl]methylthio)pyridine]",87,-60,Anti-hypertensive activity (Procedure B) [2]: inactive
"C[n+]1ccccc1SCc1ccc2ccccc2n1 [Example 10, 1-Methyl-2([(2-quinolyl)methyl]thio)pyridinium chloride]",,,Anti-hypertensive activity (Procedure A) ([4]; 50 mg/kg orally): showed activity
"C[n+]1ccccc1SCc1cccnc1 [Example 5, 1-Methyl-2-(3-pyridylmethylthio)pyridinium chloride]",58,-55,Anti-hypertensive activity (Procedure A) ([4]; 75 mg/kg orally): showed activity
"C[n+]1ccccc1SCc1ccncc1 [Example 9, 1-Methyl-2-([(4-pyridyl)methyl]thio)pyridinium chloride]",,,Anti-hypertensive activity (Procedure A) ([4]; 50 mg/kg orally): showed activity
"C[n+]1ccccc1SCc1ccccn1 [Example 2, 1-Methyl-2(2-pyridyl)methylthio)pyridinium chloride]",50,-31,
"C[n+]1ccccc1SCCN1CCCCC1 [Example 11, 1-Methyl-2-[(2-piperidinoethyl)thio]pyridinium chloride]",,-35,
"Cc1[nH]cnc1CSc1cccc[n+]1C [Example 1, 1-Methyl-2(4-[5-methylimidazolyl]methylthio)pyridinium chloride]",69,-65,"Anti-hypertensive activity (Procedure B) [2]: inactive; Anti-secretory (Shay et al), % change in volume ([3]; Dose 10 mg/kg): -43%"
"C[n+]1ccccc1SCc1c[nH]cn1 [Example 3, 1-Methyl-2(4-imidazolylmethylthio)pyridinium chloride]",67,-71,Anti-hypertensive activity (Procedure A) ([4]; 75 mg/kg orally): showed activity
"Cc1[nH]cnc1CSc1nccn1C [Example 4, 1-Methyl-2(4-[5-methylimidazolyl]methylthio)imidazole]",83,-87,"inhibition in vivo at 30 mg/kg [1]: 58%; Anti-hypertensive activity (Procedure B) [2]: active; Anti-secretory (Shay et al), % change in volume ([3]; Dose 10 mg/kg): -33%"
"Cc1[nH]cnc1CSc1ccccn1 [Example 6, 2-(4-[5-Methylimidazolyl]methylthio)pyridine]",,,inhibition in vivo at 3 mg/kg ([1]; Dose 3 mg/kg): 56%; inhibition in vivo at 10 mg/kg ([1]; Dose 10 mg/kg): 68%; Anti-hypertensive activity (Procedure A) ([4]; 75 mg/kg orally): inactive
